The values below come from ChEMBL document CHEMBL3407464, “Novel 5-HT6 receptor antagonists/D2 receptor partial agonists targeting behavioral and psychological symptoms of dementia” (Eur J Med Chem, 2015).

Data set [1] deals with T1, 5-hydroxytryptamine receptor 6 (Homo sapiens, UniProt P50406). Kind of data set: biochemical.
Data set [2] deals with T2, D(2) dopamine receptor (Homo sapiens, UniProt P14416). As to the kind of experiment: biochemical.
Data set [3] addresses T3, Muscarinic acetylcholine receptor M1 (Homo sapiens) (UniProt P11229).
T3 sequence (whole entry): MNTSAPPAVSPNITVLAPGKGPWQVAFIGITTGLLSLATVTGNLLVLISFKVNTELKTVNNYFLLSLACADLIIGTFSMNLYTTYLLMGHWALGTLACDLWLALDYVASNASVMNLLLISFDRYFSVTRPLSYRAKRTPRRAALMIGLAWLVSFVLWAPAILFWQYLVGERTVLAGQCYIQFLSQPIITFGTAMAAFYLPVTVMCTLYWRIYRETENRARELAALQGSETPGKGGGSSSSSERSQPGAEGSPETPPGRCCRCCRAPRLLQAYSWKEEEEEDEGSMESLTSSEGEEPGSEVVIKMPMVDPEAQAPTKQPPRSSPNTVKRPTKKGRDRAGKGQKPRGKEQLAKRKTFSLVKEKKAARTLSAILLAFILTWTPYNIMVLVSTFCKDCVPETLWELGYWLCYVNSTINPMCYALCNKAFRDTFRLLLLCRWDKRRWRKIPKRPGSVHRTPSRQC
Kind of data set: Inhibition of muscarinic M1 receptor (unknown origin) assessed as reduction in control ligand binding at 1 uM.

Data set [4] deals with hERG (KCNH2) (Homo sapiens, UniProt Q12809). Kind of data set: Inhibition of human ERG expressed in CHO cells assessed as reduction in channel current at holding potential of 0 mV at 1 uM by electrophysiological method. Type of data set: cell-based. The following applies: CHO cells expressing human ERG.
hERG (KCNH2), sequence (Q12809 whole entry): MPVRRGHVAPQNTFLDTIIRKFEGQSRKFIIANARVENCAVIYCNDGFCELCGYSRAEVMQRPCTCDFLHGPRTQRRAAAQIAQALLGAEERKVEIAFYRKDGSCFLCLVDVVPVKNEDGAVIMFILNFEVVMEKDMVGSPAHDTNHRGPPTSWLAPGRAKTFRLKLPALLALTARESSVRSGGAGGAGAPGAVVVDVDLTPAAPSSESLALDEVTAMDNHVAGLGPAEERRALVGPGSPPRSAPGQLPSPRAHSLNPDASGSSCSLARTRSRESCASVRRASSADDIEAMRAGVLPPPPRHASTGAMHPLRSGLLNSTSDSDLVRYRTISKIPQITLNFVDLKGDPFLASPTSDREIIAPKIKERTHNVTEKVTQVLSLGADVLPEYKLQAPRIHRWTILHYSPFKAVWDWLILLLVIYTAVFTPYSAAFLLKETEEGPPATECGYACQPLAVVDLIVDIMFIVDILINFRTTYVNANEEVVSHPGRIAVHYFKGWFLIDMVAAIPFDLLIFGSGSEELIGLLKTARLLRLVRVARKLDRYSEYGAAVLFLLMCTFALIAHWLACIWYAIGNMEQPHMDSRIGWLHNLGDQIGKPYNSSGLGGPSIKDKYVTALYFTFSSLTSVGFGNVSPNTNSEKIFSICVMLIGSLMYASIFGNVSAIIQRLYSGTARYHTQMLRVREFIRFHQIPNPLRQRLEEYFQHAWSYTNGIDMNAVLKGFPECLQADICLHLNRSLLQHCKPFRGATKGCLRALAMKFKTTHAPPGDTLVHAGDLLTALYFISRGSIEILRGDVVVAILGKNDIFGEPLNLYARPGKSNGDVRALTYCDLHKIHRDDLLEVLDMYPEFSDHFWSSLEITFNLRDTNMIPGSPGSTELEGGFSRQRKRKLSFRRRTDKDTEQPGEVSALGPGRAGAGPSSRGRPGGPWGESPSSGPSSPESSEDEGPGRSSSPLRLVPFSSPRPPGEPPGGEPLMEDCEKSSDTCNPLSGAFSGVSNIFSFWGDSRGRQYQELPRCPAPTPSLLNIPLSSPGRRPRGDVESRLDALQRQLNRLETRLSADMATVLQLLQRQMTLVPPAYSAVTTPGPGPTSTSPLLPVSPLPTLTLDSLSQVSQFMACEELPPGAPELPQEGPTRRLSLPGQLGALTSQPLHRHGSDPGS
The target of data set [5] is T2, D(2) dopamine receptor. As to the kind of experiment: Agonist activity at human dopamine D2 receptor expressed in CHOK1 cells assessed as calcium mobilization at 1 uM by radiometric and luminescence plate counting method. It is filed as functional, cell-based. The following applies: CHO-K1. In general terms: A change in cytosolic calcium serves as a functional read-out for many receptors and channels.

Data set [6] deals with T2, D(2) dopamine receptor. As to the kind of experiment: Antagonist activity at human dopamine D2 receptor expressed in CHOK1 cells assessed as inhibition of apomorphine-induced calcium mobilization at 1 uM by radiometric and luminescence plate counting method. It is filed as functional, cell-based. The following applies: CHO-K1.
Data set [7] has as its target T1, 5-hydroxytryptamine receptor 6. As to the kind of experiment: Agonist activity at human 5-HT6 receptor expressed in CHOK1 cells assessed as calcium mobilization at 1 uM by radiometric and luminescence plate counting method. Type of data set: functional, cell-based. The following applies: CHO-K1.
Data set [8] has as its system Rattus norvegicus. As to the kind of experiment: Anti-depressant-like activity in intraperitoneally dosed 3-months old Wistar rat by Porsolt's forced swim test. It is filed as functional. The following applies: ip, read-out: MED.
The test system of data set [9] is Rattus norvegicus. Kind of data set: Anxiolytic activity in intraperitoneally dosed 3-months old Wistar rat by Vogel's conflict drinking test. It is filed as functional. The following applies: ip, read-out: MED.

Each structure is given as a SMILES string. pKi: −log10 of the molar value.

T2 sequence (P14416 whole entry): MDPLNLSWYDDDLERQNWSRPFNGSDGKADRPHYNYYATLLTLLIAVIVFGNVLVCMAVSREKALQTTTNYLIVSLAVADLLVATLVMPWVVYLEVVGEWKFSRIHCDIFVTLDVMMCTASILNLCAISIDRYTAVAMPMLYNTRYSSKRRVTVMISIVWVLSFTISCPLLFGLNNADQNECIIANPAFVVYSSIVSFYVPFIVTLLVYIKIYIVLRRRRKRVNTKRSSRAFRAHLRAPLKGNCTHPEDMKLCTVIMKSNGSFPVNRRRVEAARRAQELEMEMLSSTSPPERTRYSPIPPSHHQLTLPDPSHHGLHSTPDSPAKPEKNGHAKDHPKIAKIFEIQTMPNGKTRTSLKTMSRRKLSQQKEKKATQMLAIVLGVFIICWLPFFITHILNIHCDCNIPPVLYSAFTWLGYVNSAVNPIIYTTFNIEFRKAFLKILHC
T1 sequence (P50406 whole entry): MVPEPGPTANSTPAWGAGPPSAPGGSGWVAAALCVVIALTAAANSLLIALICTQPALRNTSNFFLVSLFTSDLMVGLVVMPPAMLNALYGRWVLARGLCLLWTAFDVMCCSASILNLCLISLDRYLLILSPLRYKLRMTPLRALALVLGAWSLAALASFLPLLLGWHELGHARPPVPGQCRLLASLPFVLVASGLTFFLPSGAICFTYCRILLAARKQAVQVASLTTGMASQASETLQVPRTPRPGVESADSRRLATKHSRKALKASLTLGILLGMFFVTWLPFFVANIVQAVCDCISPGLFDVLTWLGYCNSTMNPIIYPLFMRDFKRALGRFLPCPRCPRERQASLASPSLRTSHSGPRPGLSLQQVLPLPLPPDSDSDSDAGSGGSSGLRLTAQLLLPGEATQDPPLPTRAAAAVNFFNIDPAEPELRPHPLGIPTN

With `NC(=O)c1ccccc1OCCCN1CC=C(c2cn(Cc3ccccc3)c3ccccc23)CC1`, the negative-log Ki (pKi) in data set [1] was 6.23; in data set [2] it was 7.51.

Regarding `NC(=O)c1ccccc1OCCCN1CCC(c2cn(S(=O)(=O)c3ccccc3)c3ccccc23)CC1`, the pKi in [1] is 7.24; in [2], 7.21.

With `NC(=O)c1ccccc1OCCCCN1CCN(c2cccc3c2ccn3S(=O)(=O)c2ccccc2)CC1`, the pKi in [1] is 8.55; in data set [2] it was 7.11.

In data set [1], `NC(=O)c1ccccc1OCCCN1CCN(c2cccc3c2ccn3Cc2ccccc2F)CC1` showed a pKi of 7.64.

On to `O=S(=O)(c1ccccc1)n1ccc2c(N3CCN(CCCOc4ccccc4)CC3)cccc21`, for which the results for the pKi in [1] and in [2] were 8.12 and 6.54, respectively.

Turning to `NC(=O)c1ccccc1OCCCNCCc1cn(S(=O)(=O)c2ccccc2)c2ccccc12`, the values for the pKi in data set [1] and in [2] were 7.21 and 6.74, respectively.

As for `O=S(=O)(c1ccccc1)n1ccc2c(N3CCN(CCCCOc4ccccc4)CC3)cccc21`, the negative logarithm of the Ki (pKi) in [1] is 7.80; in [2], 7.21.

Turning to `O=C1CCc2ccc(OCCCCN3CCN(c4cccc5c4ccn5Cc4cccc(F)c4)CC3)cc2N1`, the inhibition in data set [3] was 94%; in data set [5], 39%; in data set [6] it was 99%; in data set [7] it was 0%. Besides, the inhibition at 1 µM in [4] came out at 18%. For the same molecule, the pKi in [1] was 7.70; in data set [2] it was 8.21.

As to `O=C1CCc2ccc(OCCCCN3CCN(c4cccc5c4ccn5Cc4ccc(F)cc4)CC3)cc2N1`, the pKi in data set [1] was 7.00; in data set [2] it was 7.92.

Regarding `O=C1CCc2ccc(OCCCCNCCc3cn(S(=O)(=O)c4ccccc4)c4ccccc34)cc2N1`, the pKi in data set [1] is 7.28; in [2], 6.92.

In the case of `O=C1CCc2ccc(OCCCCN3CCN(c4cccc5c4ccn5Cc4cccc(Cl)c4)CC3)cc2N1`, the inhibition is 78% in data set [3], 37% in data set [5], 99% in data set [6] and 0% in data set [7]. In [4], the inhibition at 1 µM came out at 9%.

For the molecule `NC(=O)c1ccccc1OCCCN1CCC(c2cn(Cc3ccccc3)c3ccccc23)CC1`, the pKi is 6.31 in data set [1] and 7.54 in [2].

For the molecule `O=C1CCc2ccc(OCCCN3CCN(c4cccc5c4ccn5S(=O)(=O)c4ccccc4)CC3)cc2N1`, the pKi is 8.64 in data set [1] and 7.64 in [2].

Turning to `O=C1CCc2ccc(OCCCCN3CC=C(c4cn(S(=O)(=O)c5ccccc5)c5ccccc45)CC3)cc2N1`, the pKi in [1] was 7.28; in [2], 7.40.

`CC(C)Oc1ccccc1OCCCN1CCN(c2cccc3c2ccn3S(=O)(=O)c2ccccc2)CC1`: the pKi in [1] was 8.77; in data set [2], 6.96.

Take `O=S(=O)(c1ccccc1)n1ccc2c(N3CCN(CCCOc4ccc(F)cc4)CC3)cccc21`: the negative-log Ki (pKi) in data set [1] was 8.27; in data set [2], 7.17.

As to `NC(=O)c1ccccc1OCCCN1CCN(c2cccc3c2ccn3Cc2cccc(Cl)c2)CC1`, the pKi in data set [1] was 7.90; in data set [2] it was 7.12.

Regarding `O=C1CCc2ccc(OCCCCN3CCN(c4cccc5c4ccn5Cc4ccccc4)CC3)cc2N1`, the inhibition in data set [3] stood at 99%; in data set [5] it was 42%; in data set [6], 97%; in [7], 0%. The inhibition at 1 µM in data set [4] is 14%. Moreover, the pKi in [1] was 7.89; in data set [2], 7.70.

For the molecule `NC(=O)c1ccccc1OCCCN1CC=C(c2cn(S(=O)(=O)c3ccccc3)c3ccccc23)CC1`, the pKi was 7.48 in [1] and 6.80 in data set [2].

As for `O=C1CCc2ccc(OCCCCN3CCC(c4cn(S(=O)(=O)c5ccccc5)c5ccccc45)CC3)cc2N1`, the pKi in data set [1] is 6.85; in data set [2], 7.85.

With `NC(=O)c1ccccc1OCCCN1CCN(c2cccc3c2ccn3Cc2ccc(F)cc2)CC1`, the pKi is 7.08 in data set [1] and 7.36 in [2].

In the case of `NC(=O)c1ccccc1OCCCNCCc1cn(Cc2ccccc2)c2ccccc12`, the pKi in data set [1] was 6.17; in data set [2] it was 6.57.

On to `O=S(=O)(c1ccccc1)n1ccc2c(N3CCN(CCCCOc4ccc(F)cc4)CC3)cccc21`, for which the negative-log Ki (pKi) in [1] is 8.16; in data set [2] it was 7.33.

Consider `NC(=O)c1ccccc1OCCCN1CCN(c2cccc3c2ccn3Cc2cccc(F)c2)CC1`, for which the pKi in [1] is 8.00; in data set [2], 7.35.

`O=C1CCc2ccc(OCCCCN3CC=C(c4cn(Cc5ccccc5)c5ccccc45)CC3)cc2N1`: the figures for the negative-log Ki (pKi) in data set [1] and in data set [2] were 7.66 and 7.14, respectively.

Turning to `O=C1CCc2ccc(OCCCCNCCc3cn(Cc4ccccc4)c4ccccc34)cc2N1`, the negative logarithm of the Ki (pKi) in data set [1] is 6.82; in data set [2], 7.15.

On to `O=C1CCc2ccc(OCCCCN3CCN(c4cccc5c4ccn5S(=O)(=O)c4ccccc4)CC3)cc2N1`, for which the inhibition is 37% in data set [3], 48% in [5], 100% in data set [6] and 0% in data set [7]. For the same molecule, the inhibition at 1 µM in data set [4] was found to be 13%. Besides, the pKi in [1] was 9.40.

`CC(C)Oc1ccccc1OCCCCN1CCN(c2cccc3c2ccn3S(=O)(=O)c2ccccc2)CC1`: the pKi was 7.96 in data set [1] and 6.92 in data set [2].

On to `NC(=O)c1ccccc1OCCCN1CCN(c2cccc3c2ccn3Cc2ccccc2)CC1`, for which the pKi in [1] is 7.62; in data set [2], 7.02.

In the case of `COc1ccc(NS(=O)(=O)c2sc3ccc(Cl)cc3c2C)cc1N1CCNCC1`, the figures for the minimal effective dose in [8] and in [9] were 10 mg/kg and 3 mg/kg, respectively.

With `O=S(=O)(c1ccccc1)n1ccc2c(N3CCN(CCCOc4ccc5ccoc5c4)CC3)cccc21`, the values for the pKi in data set [1] and in [2] were 8.42 and 6.66, respectively.

In the case of `O=C1CCc2ccc(OCCCCN3CCC(c4cn(Cc5ccccc5)c5ccccc45)CC3)cc2N1`, the pKi in [1] is 6.82; in data set [2], 8.32.

Take `O=C1CCc2ccc(OCCCCN3CCN(c4cccc5c4ccn5Cc4ccccc4F)CC3)cc2N1`: the pKi in data set [1] is 7.35; in data set [2] it was 7.96.

As usually defined, the pKi is the Ki on a negative log10 scale, so that one unit is a factor of ten. A higher pKi goes with a small Ki. A word on the inhibition: it is the percentage by which the read-out fell short of the control.
